Experimental data taken from patent US6902931B1 (priority 1998, dated 2005).

Legend:
[1] = tested on: NIH/3T3 murine fibroblasts; experiment: Viability after vacuum drying and rehydration; assay type: cell-based; conditions: H5-porated; for protection of cells subjected to vacuum drying: 0.3 M sugar; for cells that successfully attached at three hours / survival rate: 0.3M sugar; for cells that successfully attached at three hours: vacuum dried 2 hours at ambient temperature, rehydrated; for survival rate: vacuum dried, adjusted for cell loss using control samples
Description: The efficacy of intracellular trehalose for vacuum dried fibroblasts was also tested. NIH/3T3 murine fibroblasts, prepared as in Example 1, were resuspended in phosphate buffered saline (PBS) solution and the cell density was counted. Cell density was then adjusted to 100,000 cells/ml by diluting with PBS and the sample was divided into three equal aliquots of 4.0 ml each. To each aliquot, 1.0 ml of 25 μg/ml H5 was added, reducing cell density to 8×10^4. The aliquots were incubated at room temperature for 15 minutes with occasional mixing.
In the first two aliquots, enough 1.0M stock solution of either trehalose or sucrose in PBS was added to obtain a final sugar concentration of 0.3M. In the third aliquot, an equivalent amount of PBS, without sugar, was added.
The three aliquots were dispersed in triplicate wells at 20 μl/well into four duplicate 12-well plates. Two of the twelve well plates were incubated at 37° C. and 10% CO2 as controls. The remaining two plates were vacuum dried for 2 hours at ambient temperature. After drying, the dried samples were rehydrated and the poration reversed with serum containing DMEM.
Viability assays were performed by counting attached cells at 3 hours, and cells that remained attached and divided during the next 24 hours. The experiments were repeated three times. […] Adjusting for cell loss due to handling, poration, etc. using the control samples, survival rates of 4% for the cells dried in trehalose and 3% for the cells dried in sucrose were obtained.

[2] = tested on: NIH/3T3 murine fibroblasts; experiment: Clonogenic assay; assay type: cell-based; conditions: post-thaw; H5 and 0.4 M trehalose; from approximately 200±12 plated cells, one week
Description: For each condition, approximately 200 of the cells that had plated in 3 hours were replated in a […] for one week. To obtain 200 fibroblasts, cells were diluted to 2×10^5 cells/ml, and 1 μl of cell solution was introduced into a P60 petri dish (Falcon) containing 12 ml of DMEM with BCS. After one week, cells were fixed by a 0.5% glutaraldehyde wash and stained by Rhodamine B (Sigma) to enhance colony visibility. The number of colonies formed was determined by visual inspection.

3T3 fibroblasts = experiment: Volumetric response of porated cells in hypertonic sugar solution (sugar uptake); assay type: cell-based, murine
Description: Sugar may be added to the cell suspension in an HBS solution to the final desired concentration. Porated cells may be incubated in the sugar containing solution for 45 minutes. […] Of course the length of time required for sugar uptake may vary with the type of cell and the level of cell poration. Sugar uptake may be measured by both the uptake of radiolableled sugar into porated cells as well as by the volumetric response of porated cells placed in a hypertonic sugar solution, yielding statistically correlative results.
Following poration, 0-1.0 M trehalose (final concentration) in HBS solution (Sigma) was added to the cell suspension, as indicated in FIG. 4. To allow for trehalose uptake, porated cells were incubated in the solution for 45 min. […] [Russo et al., “Reversible permeabilization of plasma membranes with an engineered switchable pore,” Nature Biotech. 15, 278-282 (1997).] This uptake was measured by both the uptake of radiolableled sugar into porated cells as well as by the volumetric response of porated cells placed in a hypertonic sugar solution, yielding statistically correlative results. By repeating the volumetric experiments using hypertonic trehalose solutions and 25 μg/ml of porating agent, volumetric equilibration over 90% over a 45 min interval was achieved, indicating the equilibration of intracellular trehalose concentration with that of the suspending solution.

[3] = tested on: NIH/3T3 murine fibroblasts; conditions: mouse, pH 7.4
[4] = tested on: NIH/3T3 murine fibroblasts
in vitro = conditions: mouse, pH 7.4

Structure (SMILES) | protection of cells subjected to vacuum drying [1] | cells that successfully attached at three hours [1] [cells] | survival rate [1] [%] | colonies formed [2] [colonies] | trehalose concentration at which fibroblasts reach minimum volume (3T3 fibroblasts; data not shown) | volumetric equilibration (3T3 fibroblasts; hypertonic trehalose solutions, 25 μg/ml porating agent, 45 min interval) | viability and function after 1 hour [3] | additional loss of porated cells (18 hours growth) [4] [%] | fibroblasts withstanding osmotic shock (18 hours growth) [4] | higher than all control data to which trehalose was not added [4] | loss of population between 1 hour and 3h / 18 hours [4] | loss of viability or function [4] | population loss [4] | viability (in vitro) [%]
OC[C@H]1O[C@@](CO)(O[C@H]2O[C@H](CO)[C@@H](O)[C@H](O)[C@H]2O)[C@@H](O)[C@@H]1O [sucrose] | effective in protecting cells subjected to vacuum drying | 36±3 | 3 |  |  |  |  |  |  |  |  |  |  | 
OC[C@H]1O[C@H](O[C@H]2O[C@H](CO)[C@@H](O)[C@H](O)[C@H]2O)[C@H](O)[C@@H](O)[C@@H]1O [Trehalose, trehalose] | effective in protecting cells subjected to vacuum drying | 48±3 | 4 | 211.6±5.2 | about 0.4 M | over 90% | 70-80% | 10 | over 95% | 70-80% | over 60% | did not demonstrate a significant loss of viability | loss of half of their populations | 10
